Measurements taken from patent publication US20100016250A1, “TOLL-LIKE RECEPTOR 9 AGONISTS” (KYOWA HAKKO KIRIN CO., LTD., priority 2006, published 2010).

Assays:
NF-κB = experiment: Promoting effect on NF-κB promoter-dependent transcriptional activity (luciferase reporter); type: cell-based, human; conditions: BGERKB5 cells (Namalwa KJM-1 with pIF-luc), 5 hours incubation; FIGS. 2 and 3
Experimental: For the purpose of constructing an evaluation system for determination of NF-κB activity, the following stable transformant cell line was used. NF-κB luciferase reporter plasmid pIF-luc (containing a hygromycin resistant gene expression unit) introduced into cells was prepared by the method described in Japanese Published Unexamined Patent Application No. 169479/00. The plasmid was introduced into a human B-cell line, Namalwa (KJM-1) [Cytotechnology, Vol. 1, p. 151 (1988)], followed by culturing with addition of 0.3 mg/mL hygromycin B to select hygromycin-resistant cells. Among the selected hygromycin-resistant cells, a cell line with which enhancement of luciferase activity by TNF-α (10 ng/mL) stimulation was confirmed (hereinafter referred to as BGERKB5 cells) was used in the following test.
The BGERKB5 cells were suspended in RPMI1640·ITPSG medium having the following composition at a concentration of 1×10^6 cells/mL (hereinafter referred to as the BGERKB5 cell suspension). A test compound was dissolved in phosphate buffer (pH 5) and diluted to a desired concentration with RPMI1640·ITPSG medium to prepare an aqueous solution.
To RPMI1640 medium (Nissui Pharmaceutical Co., Ltd.) were added the following substances at the following concentration or ratio based on the medium (the resulting medium is hereinafter referred to as RPMI1640·ITPSG medium).

CD86 = conditions: BGERKB5 cells, 50 nmol/L, 12 hours
Experimental: (§1) Flow cytometry analysis of CD40, CD80, CD86, etc., which are co-stimulating molecules important for the activation of lymphocytes, can be carried out in the following manner.
(§2) The BGERKB5 cell suspension having a concentration of 1.1×10^6 cells/mL obtained in Test Example 1 (90 μL) was put into wells of a 96-well plate containing an aqueous solution of a test compound prepared according to the method described in Test Example 1 (10 μL) (final concentration: 50 nmol/L), followed by incubation in a CO2 incubator at 37° C. for 12 hours (test compound group). As a control test, a control group without addition of a test compound was also prepared.
(§3) The following experiments were carried out at a temperature not more than 4° C. The cells were washed twice with 200 μL of phosphate buffer (PBS) containing 1% bovine serum albumin (Fraction V, Sigma) and 0.05% sodium azide, followed by replacement with the same buffer (100 μL). A phycoerythrin-labeled mouse anti-human CD40 monoclonal antibody solution (BD Biosciences), a phycoerythrin-labeled mouse anti-human CD80 monoclonal antibody solution (BD Biosciences) or a phycoerythrin-labeled mouse anti-human CD86 monoclonal antibody solution (BD Biosciences) (2 μL) was added to the cells, and after stirring, the cells were allowed to stand in the dark for 50 minutes.
(§4) The cells were washed twice with 200 μL of phosphate buffer (PBS) containing 1% bovine serum albumin (Fraction V, Sigma) and 0.05% sodium azide, followed by replacement with the same buffer (500 μL).
(§5) The cell count was determined using EPICS XL-MCL (Beckman Coulter, Inc., excitation wavelength 488 nm, argon laser) as a flow cytometer and a positive cell ratio was calculated. As a measurement software, System 2 version 3.0 (Beckman Coulter, Inc.) was used.

CD80 = conditions: BGERKB5 cells, 50 nmol/L, 12 hours
Experimental: as §1, §2, §3, §4, §5

CD40 = conditions: BGERKB5 cells, 50 nmol/L, 12 hours
Experimental: as §1, §2, §3, §4, §5

interleukin 12B (IL12B) = conditions: Mock cells, 50 nmol/L, 5 hours; corrected with GAPDH, ratio to solvent control (=1)
Experimental: (§6) The remaining portion (2.6 mL) of each of the cell suspensions of the four groups used in Test Example 4 was incubated in a 15-mL sterile tube for 5 hours. The cells were collected, and the expression levels of genes of glyceraldehyde-3-phosphoate dehydrogenase (GAPDH), luciferase (NF-κB promoter-derived) (NF-κB-LUC), interleukin 12B (IL12B) and CD80 antigen (CD80) were measured by the quantitative RT-PCR method using SYBR-Green [see Bio Techniques, Vol. 22, p. 130-131, p. 134-138 (1997)].
(§7) That is, the cell suspension of each group remaining in the above test was subjected to the following procedure.
(§8) The cell suspension (1×10^6 cells/mL) of each group (2.6 mL: total cell number 2.6×10^6 cells) was centrifuged using himac CF702 centrifuge (Hitachi Koki Co., Ltd.) at 4° C. at 800 rpm for 10 minutes, and after the supernatant was removed using Pipetman, PBS (2 mL) was added. The obtained cell suspension was further centrifuged using himac CF702 centrifuge (Hitachi Koki Co., Ltd.) at 4° C. at 800 rpm for 10 minutes, and the supernatant was removed using Pipetman to obtain cells.
(§9) Total RNA was extracted from the obtained cells using RNeasy Mini Kit (registered trademark: Qiagen, Inc.) according to the manual attached to the kit. By using the obtained total RNA as a template, cDNA was synthesized in the following manner using Super Script First-strand Synthesis System for RT-PCR (Invitrogen Corp.) according to the manual attached to the kit.
(§10) Ten mmol/L dNTPs mixture solution (1.0 μL) and 0.5 μg/μL oligo(dT)12-18 primer (1.0 μL) were added to the […] (5 μg), and the mixture was diluted with an aqueous solution of diethyl pyrocarbonate (DEPC) to make a total volume of 10.0 μL. The obtained solution was heated at 65° C. for 5 minutes, then rapidly cooled on ice, and allowed to stand for more than one minute for denaturation.

CD80 antigen (CD80) = conditions: Mock cells, 50 nmol/L, 5 hours; corrected with GAPDH, ratio to solvent control (=1)
Experimental: as §6, §7, §8, §9, §10

[1] = system: luciferase (NF-κB promoter-derived) (NF-κB-LUC); conditions: Mock cells, 50 nmol/L, 5 hours; corrected with GAPDH, ratio to solvent control (=1)
Experimental: as §6, §7, §8, §9, §10

[2] = system: glyceraldehyde-3-phosphate dehydrogenase (GAPDH); conditions: Mock cells, 50 nmol/L, 5 hours; GAPDH is the internal standard regarded as 1; solvent control = 1
Experimental: as §6, §7, §8, §9, §10

TLR9 = TLR9 (Homo sapiens, UniProt Q9NR96); conditions: BGERKB5 cells without siRNA (Mock), 50 nmol/L, 5 hours
TLR9, sequence (Q9NR96 26-1032): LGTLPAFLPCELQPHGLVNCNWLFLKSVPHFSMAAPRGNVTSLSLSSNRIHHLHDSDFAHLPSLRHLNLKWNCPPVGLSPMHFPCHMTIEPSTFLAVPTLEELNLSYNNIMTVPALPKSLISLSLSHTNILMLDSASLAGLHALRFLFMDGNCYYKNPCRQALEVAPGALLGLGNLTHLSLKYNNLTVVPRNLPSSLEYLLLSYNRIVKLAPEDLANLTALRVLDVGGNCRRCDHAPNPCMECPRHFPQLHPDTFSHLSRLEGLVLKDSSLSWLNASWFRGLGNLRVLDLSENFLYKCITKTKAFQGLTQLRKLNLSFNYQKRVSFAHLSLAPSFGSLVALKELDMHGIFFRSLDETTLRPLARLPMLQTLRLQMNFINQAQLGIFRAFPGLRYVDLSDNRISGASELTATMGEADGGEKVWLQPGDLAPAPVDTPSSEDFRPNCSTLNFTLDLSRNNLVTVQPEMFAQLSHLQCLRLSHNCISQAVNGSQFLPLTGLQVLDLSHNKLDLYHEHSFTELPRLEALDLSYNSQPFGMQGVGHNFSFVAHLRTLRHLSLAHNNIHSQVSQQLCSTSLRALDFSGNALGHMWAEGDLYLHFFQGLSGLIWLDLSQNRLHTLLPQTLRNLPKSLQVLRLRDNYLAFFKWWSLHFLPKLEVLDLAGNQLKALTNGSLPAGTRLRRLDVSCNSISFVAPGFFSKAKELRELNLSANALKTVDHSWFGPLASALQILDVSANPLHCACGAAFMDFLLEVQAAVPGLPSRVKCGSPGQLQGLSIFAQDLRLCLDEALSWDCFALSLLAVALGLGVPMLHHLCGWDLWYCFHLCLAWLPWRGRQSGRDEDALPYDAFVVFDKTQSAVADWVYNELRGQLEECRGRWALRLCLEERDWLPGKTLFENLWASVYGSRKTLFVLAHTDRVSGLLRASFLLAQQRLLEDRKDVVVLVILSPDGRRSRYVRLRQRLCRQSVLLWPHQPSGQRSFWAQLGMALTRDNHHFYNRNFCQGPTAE
Experimental: A knockdown test of TLR9 using siRNA in BGERKB5 cells can be carried out in the following manner.
A BGERKB5 cell suspension (0.5 mL) having a concentration of 4×10^5 cells/mL obtained according to the method described in Test Example 1 was seeded into 6 wells of a 24-well plate (total cell number: 1.2×10^6 cells), followed by incubation in a CO2 incubator at 37° C. for 24 hours.
Then, siRNA against TLR9 (Ambion, Inc., pre-designed siRNA, ID#6055, Cat. 16704, Lot. 047951si) was introduced in an amount of 100 pmol per well using lipofectamine 2000 (Invitrogen Corp.).
Twenty-four hours after the siRNA introduction, the medium was replaced with a fresh one, followed by further incubation for 48 hours. The obtained cells were collected in a sterile tube and suspended in RPMI1640·ITPSG medium at a concentration of 1×10^6 cells/mL (TLR9 kd group). “Mock group” containing no siRNA was prepared in the same manner as in the preparation of “TLR9 kd group”. […]
A 400-μL portion from each of the cell suspensions of the four groups (3 mL) was seeded in quadruplicate 100 μL aliquots into a 96-well plate, followed by incubation for 5 hours. Steady-Glo (Promega Corp.) (100 μL) was added and the luciferase activity (RLU) in each well was measured using Multilabel Counter ARVO (Perkin-Elmer Corp.).

IP-10 = conditions: BGERKB5 cells, 50 nmol/L, 48 hours, culture supernatant
Experimental: Enzyme-linked immunosorbent assay (ELISA) of IP-10 can be carried out in the following manner.
As a control test, a control group without addition of a test compound was also prepared.
Measurement of the amount of IP-10 produced by the BGERKB5 cells was carried out using an immunoassay kit (BioSource International, Inc.). A calibration curve was prepared using the preparation attached to the kit, and the amount of IP-10 in the culture supernatant was measured.

CC(=O)OCCC1OC(OP(=O)(O)OP(=O)(O)OCC2OC(n3cnc4c(N)ncnc43)C(O)C2O)C(OC(C)=O)C(OC(C)=O)C1OC(C)=O [Compound 1, Adenosine=5′-(2,3,4,7-tetra-O-acetyl-6-deoxy-β-D-mannoheptopyranosyl)diphosphate]
luciferase activity (RLU), activating effect on NF-κB (NF-κB): enhancement of luciferase activity was confirmed

Nc1ncnc2c1ncn2C1OC(COP(=O)(O)OP(=O)(O)OC2OC(CCO)C(O)C(O)C2O)C(O)C1O [Compound 2, Adenosine=5′-(6-deoxy-β-D-mannoheptopyranosyl)diphosphate]
luciferase activity (RLU), activating effect on NF-κB (NF-κB): enhancement of luciferase activity was confirmed

CC(=O)OCC(OC(C)=O)C1OC(OP(=O)(O)OP(=O)(O)OCC2OC(n3cnc4c(N)ncnc43)C(O)C2O)C(OC(C)=O)C(OC(C)=O)C1OC(C)=O [Compound 10, Adenosine=5′-(2,3,4,6,7-penta-O-acetyl-L-glycero-β-D-mannoheptopyranosyl)diphosphate]
luciferase activity (RLU), activating effect on NF-κB (NF-κB): enhancement of luciferase activity was confirmed

Nc1ncnc2c1ncn2[C@@H]1O[C@H](COP(=O)(O)OP(=O)(O)O[C@@H]2OC([C@@H](O)CO)[C@@H](O)C(O)C2O)C(O)C1O (stereo partly drawn) [Compound 12, Adenosine=5′-(L-glycero-β-D-mannopyranosyl)diphosphate]
luciferase activity (RLU), activating effect on NF-κB (NF-κB): enhancement of luciferase activity was confirmed

CC(=O)OC[C@@H](OC(C)=O)[C@H]1O[C@@H](OP(=O)(O)OP(=O)(O)OC[C@H]2O[C@@H](n3cnc4c(N)ncnc43)[C@H](O)[C@@H]2O)[C@@H](OC(C)=O)[C@@H](OC(C)=O)[C@@H]1OC(C)=O [Compound 14, Adenosine=5′-(2,3,4,6,7-penta-O-acetyl-D-glycero-β-D-mannoheptopyranosyl)diphosphate]
luciferase activity (RLU), activating effect on NF-κB (NF-κB): enhancement of luciferase activity was confirmed

Nc1ncnc2c1ncn2[C@@H]1O[C@H](COP(=O)(O)OP(=O)(O)O[C@@H]2O[C@H]([C@H](O)CO)[C@@H](O)[C@H](O)[C@@H]2O)[C@@H](O)[C@H]1O [Compound 16, Adenosine=5′-(D-glycero-β-D-mannoheptopyranosyl)diphosphate]
Positive cell ratio (%) CD86 (CD86): 78.4% | Positive cell ratio (%) CD80 (CD80): 45.7% | Positive cell ratio (%) CD40 (CD40): 93.6% | luciferase activity (RLU), activating effect on NF-κB (NF-κB): enhancement of luciferase activity was confirmed | relative mRNA expression level, IL12B, Mock (interleukin 12B (IL12B)): 1.4 | relative mRNA expression level, CD80, Mock (CD80 antigen (CD80)): 127 | relative mRNA expression level, NF-κB-LUC, Mock [1]: 59.7 | relative mRNA expression level, GAPDH, Mock [2]: 1.0 | Luciferase activity (RLU) (mean ± standard error), Mock (TLR9): 7196.7 ± 88.8 RLU | amount of IP-10 produced (IP-10): 1441 pg/mL

Adenosine=5′-(6-deoxy-β-D-mannoheptopyranosyl)-α, β-methylene diphosphate [Compound 30]
luciferase activity (RLU), activating effect on NF-κB (NF-κB): enhancement of luciferase activity was confirmed | amount of IP-10 produced (IP-10): 821 pg/mL
